What was measured:
Type in all cases: functional, cell-based
A549 = test: Cytotoxicity against human A549 cells by SRB assay
SK-OV-3 = test: Cytotoxicity against human SKOV3 cells by SRB assay
SK-MEL-2 = test: Cytotoxicity against human SK-MEL-2 cells by SRB assay
HCT-15 = test: Cytotoxicity against human HCT15 cells by SRB assay

| Structure (SMILES) | IC50 (A549) [µM] | IC50 (SK-OV-3) [µM] | IC50 (SK-MEL-2) [µM] | IC50 (HCT-15) [µM] |
| --- | --- | --- | --- | --- |
| COc1ccc(C[C@H]2c3cc(O)c(OC)cc3CCN2C)cc1O [(S)-RETICULINE] | > 30 | > 30 | > 30 | 29.4 |
| c1c2c(cc3c1OCO3)-c1cc3ccc4c(c3c[n+]1CC2)OCO4 [COPTISINE CHLORIDE] | 24 | > 30 | > 30 | 29.1 |
| COc1ccc2cc3[n+](cc2c1OC)CCc1cc2c(cc1-3)OCO2 [BERBERINE CHLORIDE] | 6.27 | 16.4 | 13.8 | 16.6 |
| CN1CCc2cc3c(cc2[C@@H]1Cc1ccc2c(c1C(=O)O)OCO2)OCO3 | > 30 | > 30 | > 30 | 27.8 |
| COc1cc2c(cc1OC)C1Cc3ccc(O)c(O)c3CN1CC2 (stereo not given) [DEMETHYLCORYDALMINE] | 8.34 | 5.14 | 7.87 | 2.86 |
| COc1c(O)ccc2cc3[n+](cc12)CCc1cc2c(cc1-3)OCO2 [THALIFENDINE] | 28.3 | > 30 | 25.7 | > 30 |
| COc1cccc2c1C(=O)c1c(O)c3c(c(O)c1C2=O)C[C@@](O)(C(=O)CO)C[C@@H]3O[C@H]1C[C@H](N)[C@H](O)[C@H](C)O1 [DOXORUBICIN] |  | 0.003 | 0.012 | 0.038 |
| COc1ccc2c(c1OC)CN1CCc3cc4c(cc3C1C2)OCO4 (stereo not given) [TETRAHYDROBERBERINE] | > 30 | > 30 | 27.9 | > 30 |
| COc1ccc(C[C@H]2NCCc3cc4c(cc32)OCO4)c(C(=O)O)c1OC [CORYTERNATINE C] | > 30 | > 30 | > 30 | 27.6 |
| O=C(O)c1c(C[C@@H]2NCCc3cc4c(cc32)OCO4)ccc2c1OCO2 [CORYTERNATINE A] | > 30 | > 30 | > 30 | 23.3 |
| COc1cc2c(cc1OC)C1Cc3ccc(O)c(OC)c3CN1CC2 (stereo not given) [CORYDALMINE] | > 30 | 28.5 | 27.2 | 26.4 |
| COc1cc2c(cc1O)C1Cc3ccc4c(c3CN1CC2)OCO4 (stereo not given) [CHEILANTHIFOLINE] | 20.6 | 27.4 | 22.2 | 29.8 |
| COc1ccc(C[C@@H]2NCCc3cc4c(cc32)OCO4)c(C(=O)O)c1OC [CORYTERNATINE B] | > 30 | > 30 | > 30 | 24.6 |
| COc1ccc(C[C@@H]2c3cc(O)c(OC)cc3CCN2C)cc1O [(R)-RETICULINE] | > 30 | > 30 | > 30 | 26.8 |

Reference: ChEMBL document CHEMBL1208733, “Benzylisoquinoline alkaloids from the tubers of Corydalis ternata and their cytotoxicity” (Bioorg Med Chem Lett, 2010)
